According to US20150044305A1, “[…] NITRIC OXIDE FOR TREATING RESPIRATORY DISEASES” (Advanced Inhalation Therapies (AIT) Ltd., priority 2012, published 2015):

Legend:
Klebsiella sp.#3 = settings: 200 ppm gNO, saline suspension; cited from earlier work
[1] = test system: influenza A/victoria/H3N2; settings: 160 ppm exogenous gNO, virions or incubated cells, MDCK cell model; cited from earlier work
[2] = Phase I safety study: hematology, clinical chemistry and coagulation; format: in vivo, human; settings: end of study; baseline 0.15; p=0.104
Method: (§1) After obtaining informed consent, treatment was initiated within 5 days of enrollment. Subjects were housed in a hospital ward and received 160 ppm gNO for 30 minutes every four hours (Q4 h), five times a day, for five consecutive days by inhalation. Subjects returned for follow-up evaluations 3, 7 and 21 days after the final gNO administration. Subject safety was determined by monitoring vital signs, methemoglobin levels, lung function, blood chemistry, hematology, prothrombin time, inflammatory cytokine/chemokines levels and endothelial activation.
Hematological assessment included a complete blood count and differentials (hemoglobin, hematocrit, red blood cell count, white blood cell count, white blood cell differential, and platelet count) were obtained in order to monitor blood chemistry, hematology and inflammation measurements. […] The effect of gNO on coagulation was determined by the prothrombin time (PT) and its derived measures of prothrombin ratio (PR) and international normalized ratio (INR). […] Plasma cytokine levels were assessed using the human inflammation cytokine bead array kit (BD Bioscience, Canada). Plasma levels of angiopoietin Ang-1 and Ang-2 were determined by ELISA (R&D Systems, USA).

[3] = Phase I safety study: oxygen saturation (SpO2) by pulse oximeter; format: in vivo, human
Method: as §1
Abbreviated physical examination by a registered nurse was carried out each day prior to initiation of treatments on days 1-5. Oxygenation was measured with a pulse oximeter (Rad 57, Masimo Corporation, USA) which was used according to manufacturer's guidelines to measure functional oxygen saturation of arterial hemoglobin (SpO2) and heart rate. These parameters were measured continuously during every gNO administration and for 3.5 hours after the first treatment of the day.

[4] = test system: highly pathogenic Avian Influenza H7N3; settings: cited from earlier work
[5] = Phase I safety study: inspiratory NO2 level during gNO administration; format: in vivo, human; settings: inspired gas, 160 ppm gNO
Text: (§2) The levels of gNO, NO2, O2 and methemoglobin were monitored during the administration of gNO. The target gas mixture was 160 ppm gNO with a nitrogen dioxide (NO2) level of less than 5 ppm and an oxygen (O2) level ranging from 21% to 25%. Inspiratory NO, NO2 and O2 levels were continuously monitored by sampling from the mouthpiece sample port located about 6 millimeters from the mouth of the subject with an AeroNOx (Pulmonox, AB, Canada) NO, NO2 and O2 electrochemical analyzer. Delivery safety was determined by the number of occasions that NO2 exceeded 5 ppm, gNO exceeding 10% variation and O2 dropping below 20% during gNO administration. A commercially available noninvasive pulse oximeter (Rad 57, Masimo Corporation, USA) was used to measure saturation levels at the periphery of methemoglobin (SpMet).

[6] = test system: all microorganisms tested; settings: 200 ppm gNO, cited from earlier work
methemoglobin = assay: Phase I safety study: methemoglobin (SpMet) by pulse oximeter; format: in vivo, human
Method: as §1, §2
These parameters were measured continuously during every gNO administration course and for 3.5 hours after the first treatment of the day. Daily serum samples were collected and frozen at −80° C. and the serum […] level was measured using the Griess reagent.

Acinetobacter sp. = settings: 200 ppm gNO, saline suspension; cited from earlier work
[7] = Phase I open label safety study in healthy adults: adverse events and vital signs; format: in vivo, human
Text: 10 healthy adult volunteer subjects (5 males, 5 females), aged 20 to 62 years, were enrolled in the study after screening their medical history, a physical examination, pulmonary function tests and blood values. Exclusion criteria included individuals less than 19 years of age, pregnant females and unwilling to practice birth control during the study, diagnosed with pulmonary disease, epistaxis, hemoptysis, methemoglobinemia, organ transplant recipient or receiving antibiotic therapy.
as §1
Subjects were administered gNO through a modified disposable mouthpiece to maximize mixing. Inspiration was spontaneously initiated by the subject from a conventional intermittent positive pressure breathing respirator (Mark-7, Carefusion, USA) in fixed flow mode delivering 48 liters per minute (LPM). Flows of gas were verified with a calibrated mass flow meter (TSI, USA). Gaseous nitric oxide (gNO, obtained at INOmax, Ikaria, USA) at a concentration of 800 ppm delivered at a flow of 12 LPM was titrated into a distal delivery port on the mouth piece connected to the respirator during inspiratory phase only (pressure switch). The Mark 7 respirator was supplied by an air/oxygen blender (Bird Sentry, Carefusion, USA) set to deliver 26% oxygen.
Cardiovascular status was determined by monitoring heart rate, blood pressure, respiratory rate and temperature. Values were recorded prior to the start of each gNO administration, following a 5 minute rest. During treatments, vital signs (except temperature) were also performed 15 minutes after the start of the treatment and at the end of gNO administration and recorded. After the first treatment each day, vital signs were recorded at every 30 minutes until the start of the second gNO administration of the day.

[8] = continuous delivery of 80 ppm gNO; cited from earlier work
Klebsiella sp.#2 = settings: 200 ppm gNO, saline suspension; cited from earlier work
S. aureus (Clinical) = settings: 200 ppm gNO, saline suspension; cited from earlier work
S. aureus (ATCC) = settings: 200 ppm gNO, saline suspension; cited from earlier work
[9] = 160 ppm gNO 30 minutes, five times a day, five days
[10] = saline suspension, average over the bacteria of Table 1

SMILES: [N]=O [gNO, nitric oxide]
- LD100 (Klebsiella sp.#3): 6 h
- Latent Period (Klebsiella sp.#3): 3 h
- −2.5 Log10 (hours) (Klebsiella sp.#3): 5.1 hours
- viral replication and infectivity [1]: reduced not only viral replication but also their infectivity
- eosinophil cell numbers [2]: 0.19 giga/L
- lowest observed SpO2 [3, 9]: 93%
- incidences of hypoxemia (less than 85% SpO2) ([3]; during or after gNO administration): No sudden incidences of hypoxemia
- SpO2 levels over time between pretreatment and post treatment ([3]; not significant statistically nor clinically): decreased slightly
- viral replication and infectivity [4]: reduced not only viral replication but also their infectivity
- highest NO2 level recorded during the treatments [5]: 2.8 ppm
- reduction in CFU/mL ([6]; every bacteria challenged): ≥ 3 log10 CFU/mL
- LD100 (hours), Average [6, 10]: 4.77 h
- Latent Period (hours), Average [6, 10]: 2.77 h
- −2.5 Log10 (hours), Average [6, 10]: 3.82 hours
- residual increase in SpMet at follow-up (methemoglobin; 3, 7 and 21 days after the final exposure to gNO): did not show any residual increase
- all 930 recorded methemoglobin percent levels (SpMet) (methemoglobin; [9]): < 5%
- SpMet increase between pretreatment and post treatment (methemoglobin; 160 ppm gNO, p<0.001): about 1%
- time for SpMet to return to baseline (methemoglobin; after 160 ppm gNO administration): 3.5 h
- accumulative or lingering effect on SpMet (methemoglobin; after five daily treatments for five consecutive days): no accumulative or lingering effect
- highest SpMet (methemoglobin; at the end of the 160 ppm gNO treatment): 2.5%
- average increase of SpMet (methemoglobin; single 30 minutes treatment course, 160 ppm gNO, ten individuals): 0.9%
- LD100 (Acinetobacter sp.): 6 h
- Latent Period (Acinetobacter sp.): 4 h
- −2.5 Log10 (hours) (Acinetobacter sp.): 5 hours
- minor adverse events reported ([7]; 160 ppm gNO 30 minutes, five times a day, five days, 10 healthy adults): Three minor adverse events were reported
- tolerability and adverse events ([7]; 160 ppm gNO 30 minutes, five times a day, five days, 10 healthy adults, 250 administrations): well tolerated and no significant adverse events were observed
- vital signs ([7]; during and after 160 ppm gNO administration): remained within normal limits
- blood pressure ([7]; during or after 160 ppm gNO administration): no drop in blood pressure
- subjects with SpMet exceeding 7% [8]: 35%
- LD100 (Klebsiella sp.#2): 5 h
- Latent Period (Klebsiella sp.#2): 2 h
- −2.5 Log10 (hours) (Klebsiella sp.#2): 4.1 hours
- LD100 (S. aureus (Clinical)): 4 h
- Latent Period (S. aureus (Clinical)): 3 h
- −2.5 Log10 (hours) (S. aureus (Clinical)): 3.7 hours
- LD100 (S. aureus (ATCC)): 4 h
- Latent Period (S. aureus (ATCC)): 3 h
- −2.5 Log10 (hours) (S. aureus (ATCC)): 3.3 hours
